# Active and inactive are the calls of the source.
# How the values were obtained:
# [1] = target: Dual specificity tyrosine-phosphorylation-regulated kinase 1A (Rattus norvegicus, UniProt Q63470); assay type: biochemical, Homo sapiens
# [2] = target: Beta-galactosidase (Escherichia coli, UniProt Q8VNN2); test: PubChem AID 485352; assay type: functional
# [3] = target: T1, Zinc finger protein mex-5 (Caenorhabditis elegans, UniProt Q9XUB2); test: potency of MEX-5 RNA-binding blockers – biochemical, C. elegans, fluorescence polarization, dose response (AID 1960)
# T1 sequence (Q9XUB2 whole entry): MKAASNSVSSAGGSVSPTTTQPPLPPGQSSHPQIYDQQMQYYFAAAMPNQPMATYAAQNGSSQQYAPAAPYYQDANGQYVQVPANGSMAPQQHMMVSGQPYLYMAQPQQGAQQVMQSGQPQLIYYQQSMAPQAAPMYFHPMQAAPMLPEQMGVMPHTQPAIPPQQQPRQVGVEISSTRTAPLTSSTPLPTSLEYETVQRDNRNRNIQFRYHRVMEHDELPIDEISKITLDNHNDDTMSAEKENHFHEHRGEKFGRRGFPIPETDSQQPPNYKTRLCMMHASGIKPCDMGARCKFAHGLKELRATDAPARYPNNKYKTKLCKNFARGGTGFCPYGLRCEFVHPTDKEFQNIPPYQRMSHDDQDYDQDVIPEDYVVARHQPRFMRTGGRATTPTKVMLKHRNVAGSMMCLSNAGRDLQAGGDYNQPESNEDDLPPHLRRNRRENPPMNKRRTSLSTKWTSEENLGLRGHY
# [4] = target: T2, RNA-binding protein pos-1 (Caenorhabditis elegans, UniProt G5EF15); test: disruptors of C. elegans POS-1 RNA interaction – biochemical, fluorescence polarization, dose response (AID 1964);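 note: purified POS-1 fused to maltose binding protein made in E. coli; potency of compounds blocking POS-1 binding to fluorescent RNA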
# T2 sequence (G5EF15 whole entry): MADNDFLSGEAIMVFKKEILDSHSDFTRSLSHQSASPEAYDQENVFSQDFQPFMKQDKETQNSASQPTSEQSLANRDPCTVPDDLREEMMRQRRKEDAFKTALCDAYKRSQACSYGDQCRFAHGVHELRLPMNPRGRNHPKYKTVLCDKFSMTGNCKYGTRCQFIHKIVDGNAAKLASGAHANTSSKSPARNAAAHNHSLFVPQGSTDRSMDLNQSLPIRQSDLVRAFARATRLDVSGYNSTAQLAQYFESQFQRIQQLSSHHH
# [5] = target: T3, Type-1 angiotensin II receptor (Homo sapiens, UniProt P30556); test: antagonism of angiotensin II type 1 receptor – cell-based, uHTS hits, selectivity assay for APJ receptor antagonist project, dose response (AID 463214); assay type: functional;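 note: antagonist potency against angiotensin II stimulated AT1 response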
# T3 sequence (P30556 whole entry): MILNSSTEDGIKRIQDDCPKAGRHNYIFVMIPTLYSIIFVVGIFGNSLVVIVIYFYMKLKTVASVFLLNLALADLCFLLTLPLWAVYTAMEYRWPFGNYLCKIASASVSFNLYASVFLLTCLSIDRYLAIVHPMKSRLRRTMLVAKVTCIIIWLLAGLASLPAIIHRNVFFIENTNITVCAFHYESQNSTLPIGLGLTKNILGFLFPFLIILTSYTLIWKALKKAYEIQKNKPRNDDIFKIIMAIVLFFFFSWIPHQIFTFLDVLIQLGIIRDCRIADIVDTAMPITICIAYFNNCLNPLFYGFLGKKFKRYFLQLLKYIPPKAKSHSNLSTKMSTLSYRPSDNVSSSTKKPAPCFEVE
# [6] = NIH3T3 cell viability loss – ATP luminescence, mouse fibroblasts, counter-screen, dose response (AID 2010); assay type: functional, cell-based;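 note: cells exposed to compound for about 90 hours before reading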
# [7] = target: Glucose-6-phosphate 1-dehydrogenase (Homo sapiens, UniProt P11413); test: inhibition of Homo sapiens G6PD, dose series – biochemical, fluorescence, selectivity assay for P. falciparum G6PD inhibitor project, dose response (AID 504792); assay type: functional
# Glucose-6-phosphate 1-dehydrogenase, sequence (P11413 whole entry): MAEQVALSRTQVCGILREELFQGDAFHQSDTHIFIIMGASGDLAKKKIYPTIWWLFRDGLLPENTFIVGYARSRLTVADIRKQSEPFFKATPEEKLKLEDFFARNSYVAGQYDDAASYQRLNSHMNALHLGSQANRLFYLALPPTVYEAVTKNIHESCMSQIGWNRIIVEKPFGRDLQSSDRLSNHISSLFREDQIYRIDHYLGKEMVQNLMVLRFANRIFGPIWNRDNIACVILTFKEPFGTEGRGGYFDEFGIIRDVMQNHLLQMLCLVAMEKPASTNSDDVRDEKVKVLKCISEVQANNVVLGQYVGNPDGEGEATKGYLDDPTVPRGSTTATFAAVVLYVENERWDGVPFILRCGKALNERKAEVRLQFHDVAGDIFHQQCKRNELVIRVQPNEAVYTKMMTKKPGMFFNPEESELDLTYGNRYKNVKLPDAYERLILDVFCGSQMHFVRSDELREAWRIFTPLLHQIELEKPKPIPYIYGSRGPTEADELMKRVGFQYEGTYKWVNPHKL
# [8] = Trypanosoma cruzi growth suppression in host cells – NIH3T3 host cells, beta-gal luminescence, confirmation (AID 2044); assay type: functional, cell-based;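 note: intracellular parasites grown in NIH/3T3 mouse fibroblasts as host cells; luminescent beta-galactosidase reporter signal from transgenic T. cruzi replicating inside host cells; inhibitors lower the luminescence signal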
# [9] = target: Peroxisome proliferator-activated receptor gamma/Nuclear receptor coactivator 3 (Homo sapiens, UniProt P37231); test: (§1) TR-FRET dose response biochemical High Throughput Screening assay for agonists of the steroid receptor coactivator 3 (SRC-3) recruitment by the peroxisome proliferator-activated receptor gamma (PPAR gamma): non-selective agonists. [Related pubchem assays: 1301 (Confirmation screen.), 1048 (Primary screen.)]; assay type: functional
# Peroxisome proliferator-activated receptor gamma/Nuclear receptor coactivator 3, sequence (P37231 whole entry): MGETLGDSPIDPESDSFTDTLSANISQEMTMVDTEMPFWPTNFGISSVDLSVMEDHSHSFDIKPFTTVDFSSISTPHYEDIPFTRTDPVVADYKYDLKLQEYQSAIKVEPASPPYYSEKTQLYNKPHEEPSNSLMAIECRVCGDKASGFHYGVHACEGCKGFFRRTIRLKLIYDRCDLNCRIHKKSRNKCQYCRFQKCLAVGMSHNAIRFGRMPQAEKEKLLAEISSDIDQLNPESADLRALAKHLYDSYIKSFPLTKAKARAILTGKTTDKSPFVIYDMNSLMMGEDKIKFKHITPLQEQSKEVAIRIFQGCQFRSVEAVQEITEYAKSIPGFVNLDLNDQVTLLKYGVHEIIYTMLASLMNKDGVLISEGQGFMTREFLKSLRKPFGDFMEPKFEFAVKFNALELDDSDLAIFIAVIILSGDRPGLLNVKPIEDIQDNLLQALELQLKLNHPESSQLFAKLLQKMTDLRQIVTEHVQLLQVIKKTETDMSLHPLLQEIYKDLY
# Peroxisome proliferator-activated receptor gamma/Nuclear receptor coactivator 3, sequence (Q9Y6Q9 whole entry, further chain): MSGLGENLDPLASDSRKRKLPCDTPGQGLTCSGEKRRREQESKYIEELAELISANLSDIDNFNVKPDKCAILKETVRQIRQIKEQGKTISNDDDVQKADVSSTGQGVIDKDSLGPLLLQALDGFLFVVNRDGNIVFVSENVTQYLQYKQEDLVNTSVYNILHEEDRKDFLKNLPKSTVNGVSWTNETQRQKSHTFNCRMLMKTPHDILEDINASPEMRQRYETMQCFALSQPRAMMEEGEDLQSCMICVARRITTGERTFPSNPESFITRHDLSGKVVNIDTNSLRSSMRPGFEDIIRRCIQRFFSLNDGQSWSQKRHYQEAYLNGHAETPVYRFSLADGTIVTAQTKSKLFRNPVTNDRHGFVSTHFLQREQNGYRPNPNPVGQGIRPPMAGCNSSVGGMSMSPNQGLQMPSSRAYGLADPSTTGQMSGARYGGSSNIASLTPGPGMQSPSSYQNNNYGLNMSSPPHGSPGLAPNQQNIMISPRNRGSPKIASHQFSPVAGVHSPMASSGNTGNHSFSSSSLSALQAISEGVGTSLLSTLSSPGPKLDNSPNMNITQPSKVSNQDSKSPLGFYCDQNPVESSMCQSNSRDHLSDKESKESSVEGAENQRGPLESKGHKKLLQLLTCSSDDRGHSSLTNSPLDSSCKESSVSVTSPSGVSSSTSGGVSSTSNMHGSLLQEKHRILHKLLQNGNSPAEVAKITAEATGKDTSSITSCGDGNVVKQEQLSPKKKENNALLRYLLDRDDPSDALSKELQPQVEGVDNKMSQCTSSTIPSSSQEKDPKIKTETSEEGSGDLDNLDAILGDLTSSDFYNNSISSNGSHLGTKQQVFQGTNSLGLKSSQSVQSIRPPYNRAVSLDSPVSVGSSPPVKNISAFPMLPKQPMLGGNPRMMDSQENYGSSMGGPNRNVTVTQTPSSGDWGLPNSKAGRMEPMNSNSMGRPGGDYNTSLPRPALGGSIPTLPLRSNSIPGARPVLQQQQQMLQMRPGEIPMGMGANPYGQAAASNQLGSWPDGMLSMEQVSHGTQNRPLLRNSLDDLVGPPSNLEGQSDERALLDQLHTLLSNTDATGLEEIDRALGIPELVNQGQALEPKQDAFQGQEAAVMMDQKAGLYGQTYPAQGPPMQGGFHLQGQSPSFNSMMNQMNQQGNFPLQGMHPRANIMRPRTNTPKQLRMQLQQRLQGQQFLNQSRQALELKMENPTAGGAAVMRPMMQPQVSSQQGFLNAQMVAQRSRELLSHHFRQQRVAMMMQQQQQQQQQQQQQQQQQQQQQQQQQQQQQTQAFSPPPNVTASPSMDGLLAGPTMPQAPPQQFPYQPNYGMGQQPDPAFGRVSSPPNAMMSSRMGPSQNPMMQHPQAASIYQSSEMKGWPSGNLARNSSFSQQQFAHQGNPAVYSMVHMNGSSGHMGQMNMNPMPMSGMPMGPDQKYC
# [10] = target: Peroxisome proliferator-activated receptor gamma/Nuclear receptor coactivator 1 (Homo sapiens, UniProt P37231); test: as §1, with “1 (SRC-1)” for “3 (SRC-3)”, “assays (depositor defined):AID1300, AID1808, AID504735, AID631]” for “assays: 1301 (Confirmation screen.), 1048 (Primary screen.)]”; assay type: protein assay
# [11] = target: Peroxisome proliferator-activated receptor gamma/Nuclear receptor coactivator 2 (Homo sapiens, UniProt P37231); test: TR-FRET dose response biochemical High Throughput Screening assay for agonists of the steroid receptor coactivator 2 (SRC-2) recruitment by the peroxisome proliferator-activated receptor gamma (PPAR gamma): non-selective agonists. [Related pubchem assays: 1297, 1032 ]; assay type: functional
# Peroxisome proliferator-activated receptor gamma/Nuclear receptor coactivator 2, sequence (P37231 whole entry): as the sequence (P37231 whole entry) above
# Peroxisome proliferator-activated receptor gamma/Nuclear receptor coactivator 2, sequence (Q15596 whole entry, further chain): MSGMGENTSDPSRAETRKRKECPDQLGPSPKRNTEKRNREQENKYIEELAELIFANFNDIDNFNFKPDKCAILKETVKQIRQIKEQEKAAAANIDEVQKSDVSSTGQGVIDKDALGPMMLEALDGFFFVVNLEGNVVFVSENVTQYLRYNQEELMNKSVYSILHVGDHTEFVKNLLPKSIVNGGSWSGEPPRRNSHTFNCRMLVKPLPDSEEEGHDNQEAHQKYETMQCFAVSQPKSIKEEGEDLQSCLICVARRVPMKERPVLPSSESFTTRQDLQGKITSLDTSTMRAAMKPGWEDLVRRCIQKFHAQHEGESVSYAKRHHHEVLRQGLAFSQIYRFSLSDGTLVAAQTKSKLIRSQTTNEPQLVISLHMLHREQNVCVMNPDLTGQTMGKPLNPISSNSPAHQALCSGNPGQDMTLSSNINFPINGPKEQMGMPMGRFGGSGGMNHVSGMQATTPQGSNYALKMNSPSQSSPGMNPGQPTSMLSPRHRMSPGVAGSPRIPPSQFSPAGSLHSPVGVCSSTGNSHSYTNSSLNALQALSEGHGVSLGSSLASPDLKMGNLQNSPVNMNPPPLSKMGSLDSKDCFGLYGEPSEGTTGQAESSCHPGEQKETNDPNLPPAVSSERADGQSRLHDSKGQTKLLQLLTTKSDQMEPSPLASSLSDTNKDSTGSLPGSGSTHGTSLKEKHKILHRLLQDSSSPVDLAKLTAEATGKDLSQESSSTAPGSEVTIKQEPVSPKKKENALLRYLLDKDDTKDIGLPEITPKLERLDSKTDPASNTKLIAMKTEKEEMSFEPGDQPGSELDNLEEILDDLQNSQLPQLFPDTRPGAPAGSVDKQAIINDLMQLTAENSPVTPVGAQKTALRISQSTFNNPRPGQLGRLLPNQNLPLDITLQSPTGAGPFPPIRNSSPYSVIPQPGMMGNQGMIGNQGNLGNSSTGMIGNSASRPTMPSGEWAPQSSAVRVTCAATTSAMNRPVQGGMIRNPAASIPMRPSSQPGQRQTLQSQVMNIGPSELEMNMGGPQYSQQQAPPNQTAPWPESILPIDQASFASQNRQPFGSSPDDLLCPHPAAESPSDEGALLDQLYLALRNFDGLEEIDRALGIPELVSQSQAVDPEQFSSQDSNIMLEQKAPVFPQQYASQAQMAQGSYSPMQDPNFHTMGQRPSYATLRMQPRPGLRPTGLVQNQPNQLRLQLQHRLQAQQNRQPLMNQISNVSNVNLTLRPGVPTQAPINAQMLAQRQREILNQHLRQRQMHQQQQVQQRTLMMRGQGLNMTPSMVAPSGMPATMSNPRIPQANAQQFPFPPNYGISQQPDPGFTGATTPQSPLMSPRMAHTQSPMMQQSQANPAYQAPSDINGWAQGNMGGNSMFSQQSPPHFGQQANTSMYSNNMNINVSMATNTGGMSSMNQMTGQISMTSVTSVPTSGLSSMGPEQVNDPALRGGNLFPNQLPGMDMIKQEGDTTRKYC
# [12] = target: T4, Polyadenylate-binding protein 1 (Homo sapiens, UniProt P11940); test: MLLE binding blockers, Cy5 peptide tracer – biochemical, fluorescence polarization, Cy5-PAM2 peptide, secondary, miRNA deadenylation inhibitor project, dose response (AID 602260); assay type: functional; settings: read-out: IC50_Mean
# T4 sequence (P11940 whole entry, the tested form may be a part): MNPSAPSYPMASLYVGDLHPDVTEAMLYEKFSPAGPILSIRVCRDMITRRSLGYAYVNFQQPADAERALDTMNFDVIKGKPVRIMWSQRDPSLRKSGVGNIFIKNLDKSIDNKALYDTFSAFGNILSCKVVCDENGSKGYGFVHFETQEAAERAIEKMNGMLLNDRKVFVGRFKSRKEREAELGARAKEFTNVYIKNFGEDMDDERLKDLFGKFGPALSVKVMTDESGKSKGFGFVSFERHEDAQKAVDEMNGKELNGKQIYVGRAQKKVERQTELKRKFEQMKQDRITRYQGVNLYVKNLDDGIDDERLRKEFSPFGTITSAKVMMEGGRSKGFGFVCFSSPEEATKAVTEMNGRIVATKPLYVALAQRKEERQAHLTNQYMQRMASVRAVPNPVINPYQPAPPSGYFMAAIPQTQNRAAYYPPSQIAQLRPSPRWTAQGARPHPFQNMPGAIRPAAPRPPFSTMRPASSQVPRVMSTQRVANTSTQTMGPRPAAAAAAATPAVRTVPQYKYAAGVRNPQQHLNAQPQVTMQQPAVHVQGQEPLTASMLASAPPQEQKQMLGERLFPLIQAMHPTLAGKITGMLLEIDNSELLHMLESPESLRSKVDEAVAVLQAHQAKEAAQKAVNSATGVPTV
# [13] = target: T4, Polyadenylate-binding protein 1; test: MLLE domain peptide-binding blockers, IC50 – biochemical, fluorescence polarization, FITC-PAM2 peptide, dose response (AID 602259); assay type: functional; settings: read-out: IC50_Mean
# [14] = target: T5, High affinity choline transporter 1 (Homo sapiens, UniProt Q9GZV3); test: human choline transporter blockers, potency – cell-based, 5-point CRC, membrane potential dye, dose response (AID 504840); assay type: functional
# T5 sequence (Q9GZV3 whole entry): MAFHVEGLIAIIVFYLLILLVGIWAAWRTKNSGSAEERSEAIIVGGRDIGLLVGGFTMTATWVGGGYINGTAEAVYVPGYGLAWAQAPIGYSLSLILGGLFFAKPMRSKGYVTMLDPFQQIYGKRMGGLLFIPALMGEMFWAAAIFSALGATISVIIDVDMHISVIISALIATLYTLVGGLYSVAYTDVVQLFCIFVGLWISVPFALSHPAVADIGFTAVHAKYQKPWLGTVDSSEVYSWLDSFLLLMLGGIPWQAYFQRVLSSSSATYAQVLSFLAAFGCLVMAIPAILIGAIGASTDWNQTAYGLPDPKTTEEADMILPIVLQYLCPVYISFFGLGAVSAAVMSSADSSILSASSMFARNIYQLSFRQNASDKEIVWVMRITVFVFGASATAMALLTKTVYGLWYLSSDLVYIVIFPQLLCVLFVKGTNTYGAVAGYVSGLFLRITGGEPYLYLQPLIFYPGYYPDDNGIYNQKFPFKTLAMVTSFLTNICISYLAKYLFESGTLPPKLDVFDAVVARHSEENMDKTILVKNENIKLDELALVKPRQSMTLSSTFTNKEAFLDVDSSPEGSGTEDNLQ
# [15] = NIH-3T3 fibroblast cytotoxicity, dose response, cytotoxicity control, cell-based, fluorescence, Alamar Blue, secondary assay (AID 2327); assay type: functional;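 note: NIH-3T3 mouse fibroblasts cultured with fluconazole at 8 µg/mL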
# [16] = fluconazole-exposed Candida albicans growth modulators – fluorescence, retest, confirmation (AID 2467); assay type: functional, cell-based
# [17] = target: T6, Short transient receptor potential channel 4 (Mus musculus, UniProt Q9QUQ5); test: calcium entry via TRPC4 opening agents – cell-based, HEK293 TRPC4/mu-opioid, Fluo-4 calcium, dose response (AID 434937); assay type: functional
# T6 sequence (Q9QUQ5 whole entry): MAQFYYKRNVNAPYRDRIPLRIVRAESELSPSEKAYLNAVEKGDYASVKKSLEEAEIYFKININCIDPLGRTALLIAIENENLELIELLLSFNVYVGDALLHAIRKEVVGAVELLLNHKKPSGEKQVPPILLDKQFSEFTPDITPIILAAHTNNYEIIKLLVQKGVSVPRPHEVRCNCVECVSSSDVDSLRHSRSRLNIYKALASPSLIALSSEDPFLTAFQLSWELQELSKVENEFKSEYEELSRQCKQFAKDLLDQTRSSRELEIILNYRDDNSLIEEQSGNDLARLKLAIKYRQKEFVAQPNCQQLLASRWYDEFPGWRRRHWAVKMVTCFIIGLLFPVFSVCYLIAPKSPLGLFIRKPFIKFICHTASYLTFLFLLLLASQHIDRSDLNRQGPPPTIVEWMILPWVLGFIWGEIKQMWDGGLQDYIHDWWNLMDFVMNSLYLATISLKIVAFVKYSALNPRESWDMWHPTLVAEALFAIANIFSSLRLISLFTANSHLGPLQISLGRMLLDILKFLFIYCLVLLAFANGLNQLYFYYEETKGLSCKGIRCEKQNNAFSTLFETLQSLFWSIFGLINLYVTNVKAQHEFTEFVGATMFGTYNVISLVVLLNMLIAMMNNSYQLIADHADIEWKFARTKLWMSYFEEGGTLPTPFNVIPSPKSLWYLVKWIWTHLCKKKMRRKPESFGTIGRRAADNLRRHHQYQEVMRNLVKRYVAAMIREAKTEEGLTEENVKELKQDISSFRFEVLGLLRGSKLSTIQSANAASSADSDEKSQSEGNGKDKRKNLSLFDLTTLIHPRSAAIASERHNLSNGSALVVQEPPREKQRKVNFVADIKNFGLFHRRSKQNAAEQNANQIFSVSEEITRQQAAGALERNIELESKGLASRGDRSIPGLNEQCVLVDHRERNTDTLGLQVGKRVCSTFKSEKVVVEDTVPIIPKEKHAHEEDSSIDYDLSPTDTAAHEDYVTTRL
# [18] = test system: Streptococcus; test: GAS UMAA2166 growth inhibition – luminescence, BacTiterGlo, counter-screen for streptokinase expression inhibitor project, dose response (AID 1915); assay type: functional, organism-based;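 note: potency for reduction of bacterial viability or growth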
# [19] = test system: Streptococcus sp. 'group A'; test: Streptococcus pyogenes SK(-)GAS viability under kanamycin – luminescence, BacTiterGlo, confirmation, counter-screen for streptokinase expression inhibitor project, dose response (AID 1900); assay type: functional, organism-based
# [20] = THP-1 cell cytotoxicity, dose response, cytotoxicity control for non-replicating M. tuberculosis project (AID 489025); assay type: functional
# [21] = cells; assay type: functional
# [22] = test system: Vero; test: viability of Vero cells under compound – cytotoxicity control for flavivirus capping enzyme inhibitors (AID 588742); assay type: functional; settings: Chlorocebus sabaeus
# [23] = target: Genome polyprotein (dengue virus type 2, UniProt P29990); test: flavivirus cap methylation enzyme inhibition – biochemical, confirmation dose response, primary screen (AID 588689); assay type: functional
smiles,measurement,setting,value
CC(=O)Nc1ccc(/C=C/c2nc3ccccc3o2)cc1,AC50,[1],1.2 µM (active)
CC(NC(=O)COc1ccccc1)C(=O)OCC(=O)c1cc2ccccc2o1 (stereo not given),EC50,[2],> 40 µM (inactive)
same,EC50,[3],> 300 µM (not active)
same,EC50,[4],> 300 µM (not active)
same,IC50,[5],13.8 µM (active)
CC1=C(n2nnc([N+](=O)[O-])n2)C(c2cccnc2)C(C#N)=C(N)O1 (stereo not given),EC50,[6],> 60 µM (inconclusive)
same,IC50,[7],65 µM (inactive)
same,EC50,[8],0.209 µM (active)
O=C(C[n+]1ccc(-c2cc(C(=O)Nc3cccc(C(F)(F)F)c3)c3ccccc3n2)cc1)c1cccc([N+](=O)[O-])c1,EC50,[2],> 40 µM (inactive)
same,IC50,[5],26 µM (not active)
CCC(OC(=O)c1cc2sccc2n1C)C(=O)NCc1ccco1 (stereo not given),EC50,[9],> 79.4 µM (not active)
same,EC50,[10],> 79.4 µM (inactive)
same,EC50,[11],> 26.5 µM (not active)
N#CCCN1CCN(C(=S)c2ccc(-c3ccc(Cl)cc3)o2)CC1,EC50,[9],> 79.4 µM (not active)
same,EC50,[10],> 79.4 µM (inactive)
same,EC50,[11],> 79.4 µM (not active)
NC(=S)c1ccc(C(N)=S)o1,AC50,[1],14.3 µM (active)
same,IC50,[12],> 66 µM (inactive)
same,IC50,[13],> 66 µM (inactive)
C[C@H](NC(=O)OC(C)(C)C)c1nnc(SCC(=O)c2ccc(Cl)cc2)o1,IC50,[14],1.91 µM (active)
O=C(CCc1ccccc1)NNC(=S)NC(=O)c1ccc(Cl)cc1,EC50,[15],> 150 µM (inconclusive)
same,EC50,[16],2.16 µM (active)
same,EC50,[17],5.31 µM (active)
same,EC50,[18],6.45 µM (active)
same,EC50,[19],0.335 µM (active)
CCn1c(=O)cc(SCC(=O)N2CCN(c3ccccc3OC)CC2)c2ccccc21,EC50,[9],> 79.4 µM (not active)
same,EC50,[10],> 79.4 µM (inactive)
same,EC50,[11],> 79.4 µM (not active)
Cc1cc(Cl)cc(C)c1OCCCCn1ccnc1,CC50,[20],38.2 µM (active)
same,EC50,[17],3.76 µM (active)
same,IC50,[21],15.5 µM (active)
COc1ccc(-n2c(=S)[nH]c3cc(C(=O)NCCCN4CCOCC4)ccc3c2=O)cc1,IC50,[14],10.3 µM (active)
O=c1cc(-c2ccccc2)oc2cc(O)c(O)c(O)c12 [BAICALEIN],CC50,[22],> 40 µM (active)
same,AC50,[1],14.5 µM (active)
same,IC50,[23],35.1 µM (active)

# Reference: ChEMBL document CHEMBL1201862, “PubChem BioAssay data set” (2004)
